Data on seven molecules can be found in US20220226479A1, “CELL LAYER PERMEATION PROMOTER. COMPOSITION FOR FACILITATING DRUG ABSORPTION. AND PHARMACEUTICAL COMPOSITION” (University of Tsukuba, priority 2019, published 2022).

The structures appear in SMILES notation. “Also recorded” adds a separate entry of the source. Where a SMILES comes first, the peptide text is derived from it. Bridges are numbered along the chain shown (N, C = ends). [ ]: non-standard residue; d: D form. The star is where a group is joined. ξ: configuration not given here. Decanoyl(3ξ-OH) = CCCCCCCC(O)CC(=O)*; Decanoyl = CCCCCCCCCC(=O)*

For this assay, the system named is MDCK II cells. Put plainly: Permeation evaluation test with FD4 marker (dextran, molecular weight 4000) across a model epithelial cell layer in a transwell. The format is cell-based, dog. To be noted: for cell-layer-permeation-promoting effect (permeation of FD4, result in words): 0.003 mM in 1 v/v % DMSO, FIG. 1-4; for cell-layer-permeation-promoting effect compared with cu538-2: both at 0.003 mM, test examples 2-4, FIG. 2-4; for increase/accumulation in the amount permeating the receiver solution, late period / reversibility of the permeation-accelerating effect: 0.003 mM; for increase/accumulation in the amount permeating the receiver solution, late period: period from two hours to five hours after the start of testing, test example 1; for reversibility of the permeation-accelerating effect: recovery of tight junctions and other cell bonding structures; for increase in the amount of FD4 permeating the receiver solution with respect to the negative control (factor): test substance 0.003 mM in 1 v/v % DMSO, two hours after the start of testing, test example 1, FIG. 1. The method, then: MDCK II cells derived from dog kidney epithelial cells were used to create a model of an epithelial cell layer in which a transwell was used, and a test to evaluate permeation by substances was conducted. Specifically, MDCK II cells in a logarithmic growth phase were sowed in a transwell (diameter: 6.5 mm, collagen coat, pore size: 0.4 μm) (trade name “Corning Transwell 3495,” made by Corning Co., Ltd.) at a cell count of 3.4 to 4.0×10^4 cells, a 24-hole well plate was used as basal-side wells, and 600 μL of a cell growth medium was introduced into each of apical-side wells and the basal-side wells. The medium was replaced daily to form a layer, and three days after sowing the medium was replaced with a Hank's balanced salt solution (HESS) for measurement. After incubation for one hour at 37° C., layer formation was confirmed by measuring the transepithelial electrical resistance (TEER) using a resistance value measurement system (trade name “Millicell-ERS,” made by Millipore Corp.). After layer formation was confirmed, the apical-side medium was replaced by 100 μL of HESS to which a marker substance (FD4: […]) (made by Sigma KK) having a molecular weight of 4000 was added so as to reach a concentration of 1.0 w/v %, and test substances were added so as to reach the final concentrations indicated below. The transwell was shifted, at intervals of 30 minutes until five hours after addition of the marker substance, to the basal-side wells into which the new HESS entered, and the HESS in the remaining basal-side wells (referred to as a “receiver solution” below) was retrieved 50 μL at a time per well in a 96-hole well plate. The fluorescence intensity of the retrieved HESS at an excitation wavelength of 485 nm and a fluorescence wavelength of 528 nm was measured using a fluorescent plate reader (trade name “Wallac 1420 ARVO MX,” made by Perkin Elmer Corp.).
A test to evaluate permeation by substances was conducted in the same manner as in test example 1, except that the test substances were as indicated below.

`CCCCCCCC(O)CC(=O)N[C@@H](CC(C)C)C(=O)N[C@H](CCC(=O)O)C(=O)N[C@H](CCC(N)=O)C(=O)N[C@@H](C(=O)N[C@H](CC(C)C)C(=O)N[C@@H](CCC(N)=O)C(=O)N[C@@H]1COC(=O)[C@H]([C@@H](C)CC)NC(=O)[C@@H](C)NC(=O)[C@H](CC(C)C)NC(=O)[C@H](CC(C)C)NC(=O)[C@@H](CCC(N)=O)NC(=O)[C@@H](CC(C)C)NC(=O)[C@@H](C(C)C)NC1=O)C(C)C` (stereo partly drawn) [cu619] ({Decanoyl(3ξ-OH)}-L[dE][dQ][dV][dL]Q[dS][dV][dL][dQ]LL[dA]I; ester 7-C): the “cell-layer-permeation-promoting effect (permeation of FD4, result in words)” value was “found to have an effect” and the “cell-layer-permeation-promoting effect compared with cu538-2” value is given as “more remarkable”.

Turning to `CCCCCCC[C@H](O)CC(=O)N[C@@H](CC(C)C)C(=O)N[C@H](CCC(=O)O)C(=O)N[C@H](CCC(N)=O)C(=O)N[C@@H](C(=O)N[C@H](CC(C)C)C(=O)N[C@@H](CCC(N)=O)C(=O)N[C@@H]1COC(=O)[C@H]([C@@H](C)CC)NC(=O)[C@@H](CCC(N)=O)NC(=O)[C@H](CC(C)C)NC(=O)[C@H](CC(C)C)NC(=O)[C@@H](CCC(N)=O)NC(=O)[C@@H](CC(C)C)NC(=O)[C@@H](C(C)C)NC1=O)C(C)C` (single isomer, unassigned) [cu538-1], the “cell-layer-permeation-promoting effect (permeation of FD4, result in words)” value is listed as “accelerated permeation of substances in the paracellular pathway”; the “increase/accumulation in the amount permeating the receiver solution, late period” value was “substantially no increase/accumulation”; the “reversibility of the permeation-accelerating effect” value (“reversibility” for short) is “reversible”; the “increase in the amount of FD4 permeating the receiver solution with respect to the negative control (factor)” value is on record as “four”.

As to `CCCCCCC[C@@H](O)CC(=O)N[C@@H](CC(C)C)C(=O)N[C@H](CCC(=O)O)C(=O)N[C@H](CCC(N)=O)C(=O)N[C@@H](C(=O)N[C@H](CC(C)C)C(=O)N[C@@H](CCC(N)=O)C(=O)N[C@@H]1COC(=O)[C@H]([C@@H](C)CC)NC(=O)[C@@H](CCC(N)=O)NC(=O)[C@H](CC(C)C)NC(=O)[C@H](CC(C)C)NC(=O)[C@@H](CCC(N)=O)NC(=O)[C@@H](CC(C)C)NC(=O)[C@@H](C(C)C)NC1=O)C(C)C` [cu538-2], the “cell-layer-permeation-promoting effect (permeation of FD4, result in words)” value is “accelerated permeation of substances in the paracellular pathway”; the “increase/accumulation in the amount permeating the receiver solution, late period” value is “substantially no increase/accumulation”; the “reversibility” value is reported as “reversible”; the “increase in the amount of FD4 permeating the receiver solution with respect to the negative control (factor)” value is listed as “eight”.

For `CCCCCCCC(O)CC(=O)N[C@@H](CC(C)C)C(=O)N[C@H](CCC(=O)O)C(=O)N[C@H](CCC(N)=O)C(=O)N[C@@H](C(=O)N[C@H](CC(C)C)C(=O)N[C@@H](C)C(=O)N[C@@H]1COC(=O)[C@H]([C@@H](C)CC)NC(=O)[C@@H](CCC(N)=O)NC(=O)[C@H](CC(C)C)NC(=O)[C@H](CC(C)C)NC(=O)[C@@H](CCC(N)=O)NC(=O)[C@@H](CC(C)C)NC(=O)[C@@H](C(C)C)NC1=O)C(C)C` (stereo partly drawn) [cu592] ({Decanoyl(3ξ-OH)}-L[dE][dQ][dV][dL]A[dS][dV][dL][dQ]LL[dQ]I; ester 7-C), the “cell-layer-permeation-promoting effect compared with cu538-2” value was “equivalent”.

For the molecule `CCCCCCCCCC(=O)N[C@@H](CC(C)C)C(=O)N[C@H](CCC(=O)O)C(=O)N[C@H](CCC(N)=O)C(=O)N[C@@H](C(=O)N[C@H](CC(C)C)C(=O)N[C@@H](CCC(N)=O)C(=O)N[C@@H]1COC(=O)[C@H]([C@@H](C)CC)NC(=O)[C@@H](CCC(N)=O)NC(=O)[C@H](CC(C)C)NC(=O)[C@H](CC(C)C)NC(=O)[C@@H](CCC(N)=O)NC(=O)[C@@H](CC(C)C)NC(=O)[C@@H](C(C)C)NC1=O)C(C)C` [NY-38] (Decanoyl-L[dE][dQ][dV][dL]Q[dS][dV][dL][dQ]LL[dQ]I; ester 7-C), the “cell-layer-permeation-promoting effect (permeation of FD4, result in words)” value is listed as “accelerated permeation of substances in the paracellular pathway; also recorded: cell-layer-permeation-promoting effect was found”; the “reversibility” value was “reversible”; the “cell-layer-permeation-promoting effect compared with cu538-2” value is given as “more remarkable”.

Turning to `C/C1=C/C(=O)O[C@@H]2C[C@@H](CC[C@H](C)/C=C\C=C\CC1)O[C@@](O)([C@@H]1CSC(=O)N1)C2` [Latrunclin A, reference compound], the “amount of marker substance permeating the receiver solution over time (positive control)” value (0.0001 mM in 1 v/v % DMSO, over five hours after the start of testing) is “continuous increase/accumulation”.

On to `CCCCCCCC(O)CC(=O)N[C@@H](CC(C)C)C(=O)N[C@H](CCC(=O)O)C(=O)N[C@H](CCC(N)=O)C(=O)N[C@@H](C(=O)N[C@H](CC(C)C)C(=O)N[C@@H](CCC(N)=O)C(=O)N[C@@H]1COC(=O)[C@H]([C@@H](C)CC)NC(=O)[C@@H](CCC(N)=O)NC(=O)[C@H](CC(C)C)NC(=O)[C@H](CC(C)C)NC(=O)[C@@H](C)NC(=O)[C@@H](CC(C)C)NC(=O)[C@@H](C(C)C)NC1=O)C(C)C` (stereo partly drawn) [cu605] ({Decanoyl(3ξ-OH)}-L[dE][dQ][dV][dL]Q[dS][dV][dL][dA]LL[dQ]I; ester 7-C), for which the “cell-layer-permeation-promoting effect (permeation of FD4, result in words)” value is given as “found to have an effect”.
